Measured values reported in US4201781A, “Substituted 7[s-oxopyrido[2,3-d]pyrimidine carboxamido acetamido]cephalosporins” (Dainippon Pharmaceutical Co., Ltd., priority 1977, dated 1980).
Converted amounts (≈) assume the structure as drawn. Read-outs that look alike come from different tables or passages of the source.

Tests used:
Solubility in water = assay type: physicochemical; details: for solubility: deionized water at 25° C.
Procedure: |Solubility in deionized water at 25° C.

[1] = test system: Corynebacterium pyrogenes C-21; test: In vitro antibacterial activity (MIC); assay type: cell-based; details: C21; Corynebacterium pyrogenes C-21; in vitro; read-out: minimum inhibitory concentration (MIC)
From the text: (§1) The numerals in the table show minimum inhibitory concentrations (MIC)

[2] = test system: Enterobacter cloacae P-2540; test: In vitro antibacterial activity (MIC); assay type: cell-based
From the text: as §1

[3] = test system: Escherichia coli NIHJ JC-2; test: In vitro antibacterial activity (MIC); assay type: cell-based
From the text: as §1

Escherichia coli P-5101 [4] = test: In vitro antibacterial activity (MIC); assay type: cell-based; details: P5101; Escherichia coli P-5101; in vitro; read-out: minimum inhibitory concentration (MIC)
From the text: as §1

[5] = test system: Klebsiella pneumoniae No. 13; test: In vitro antibacterial activity (MIC); assay type: cell-based; details: Klebsiella pneumoniae No. 13; in vitro; read-out: minimum inhibitory concentration (MIC)
From the text: as §1

Proteus mirabilis P-2381 = test: In vitro antibacterial activity (MIC); assay type: cell-based
From the text: as §1

Proteus morganii Kono = test: In vitro antibacterial activity (MIC); assay type: cell-based; details: Morganella morganii, read-out: minimum inhibitory concentration (MIC)
From the text: as §1

[6] = test system: Pseudomonas aeruginosa No. 12; test: In vitro antibacterial activity (MIC); assay type: cell-based
From the text: as §1

[7] = test system: Pseudomonas aeruginosa Tsuchijima; test: In vitro antibacterial activity (MIC); assay type: cell-based; details: read-out: minimum inhibitory concentration (MIC)
From the text: as §1

[8] = test system: Salmonella enteritidis No. 1891; test: In vitro antibacterial activity (MIC); assay type: cell-based; details: Salmonella enterica; Salmonella enteritidis No. 1891; in vitro; read-out: minimum inhibitory concentration (MIC)
From the text: as §1

[9] = test system: Salmonella typhimurium S-9; test: In vitro antibacterial activity (MIC); assay type: cell-based; details: Salmonella enterica, read-out: minimum inhibitory concentration (MIC)
From the text: as §1

[10] = test system: Serratia marcescens IFO 3736; test: In vitro antibacterial activity (MIC); assay type: cell-based; details: IFO3736; Serratia marcescens IFO 3736; in vitro; read-out: minimum inhibitory concentration (MIC)
From the text: as §1

[11] = test system: Staphylococcus aureus 209P JC-1; test: In vitro antibacterial activity (MIC); assay type: cell-based; details: read-out: minimum inhibitory concentration (MIC)
From the text: as §1

[12] = test system: Staphylococcus aureus No. 50774; test: In vitro antibacterial activity (MIC); assay type: cell-based
From the text: as §1

[13] = test system: Streptococcus pyrogenes 65A; test: In vitro antibacterial activity (MIC); assay type: cell-based; details: Streptococcus pyrogenes 65A; in vitro; read-out: minimum inhibitory concentration (MIC)
From the text: as §1

Escherichia coli P-140a = test: In vitro antibacterial activity (MIC); assay type: cell-based; details: for MIC: Escherichia coli, read-out: minimum inhibitory concentration (MIC)
From the text: as §1
(§2) *Clinically isolated Cephalexinresistant strain.

Shigella flexneri 2a = test: In vitro antibacterial activity (MIC); assay type: cell-based; details: Shigella flexneri 2a; clinically isolated Cephalexin-resistant strain; in vitro; read-out: minimum inhibitory concentration (MIC)
From the text: as §1, §2

[14] = test system: Shigella flexneri 4a P-330; test: In vitro antibacterial activity (MIC); assay type: cell-based; details: 4AP330; Shigella flexneri 4a P-330; clinically isolated Cephalexin-resistant strain; in vitro; read-out: minimum inhibitory concentration (MIC)
From the text: as §1, §2

[15] = test system: Staphylococcus aureus No. 50774; test: In vivo efficacy against systemic infection in mice; set-up: species or system male mice (ddY); details: NO.50774, 336 h, mice, sc, twice about 5 minutes and 6 hours after intravenous infection, observation 14 days, read-out: ED50 (median effective dose)
Procedure: (§3) Compounds 1,2, A and B were each dissolved in deionized water to prepare injectable solutions having various concentrations.
(§4) Each of the injectable solutions was administered to mice infected with each of the bacteria described below under the conditions described below, and the median effective doses (ED50) obtained are shown in Table II. […]
(§5) male mice (ddY) weighing about 20 g
(1) Staphylococcus aureus No. 50774; Intravenous infection with 50 to 100 LD50 (about 5×10^8 cells/mouse) of a bacterial suspension in saline. twice, about 5 minutes and 6 hours after infection. […]
(§6) Note; The numerals in the table show ED50 (mg/kg). ED50 values
(§7) were calculated in accordance with the BehrensKaerber method (Arch. Exp.

Escherichia coli P-5101 [16] = test: as above; set-up: species or system male mice (ddY); details: P5101, 168 h, mice, sc, twice about 5 minutes and 6 hours after intraperitoneal infection, observation 7 days, read-out: ED50 (median effective dose)
Procedure: as §3
Each of the injectable solutions was administered to mice infected with each of the bacteria described below under the conditions described below, and the median effective doses (ED50) obtained are shown in Table II.
as §5
(2) Escherichia coli P-5101; Intraperitoneal infection with 50 to 100 LD50 (about 9×10^6 cells/mouse) of a bacterial suspension in trypto-soy broth with 4% mucin.
twice, about 5 minutes and 6 hours after infection.
as §6, §7

[17] = test system: Pseudomonas aeruginosa No. 12; test: as above; set-up: species or system male mice (ddY); details: NO.12, 168 h, mice, twice about 5 minutes and 6 hours after intraperitoneal infection, observation 7 days, read-out: ED50 (median effective dose)
Procedure: as §3, §4, §5
(3) Pseudomonas aeruginosa No. 12; Intraperitoneal infection with 50 to 100 LD50 (about 5×10^3 cells/mouse) of a bacterial suspension in trypto-soy broth with 4% mucin. twice, about 5 minutes and 6 hours after infection. […]
as §6, §7

Acute toxicity in mice = details: mouse, in vivo, iv, read-out: LD50 (median lethal dose)
Procedure: Injectable solutions containing compounds 1, 2 and compound A in various concentrations were administered to male mice (ddY) (4 to 8 in each group) in a dose of 0.1 ml per 10 g of body weight. The number of dead mice was counted after a lapse of 7 days, and the value of median lethal dose (LD50, mg/kg) was calculated.
Note: The LD50 values were calculated in accordance with the […]

[18] = P2540, Enterobacter cloacae P-2540, in vitro, read-out: minimum inhibitory concentration (MIC)
[19] = NIHJJC2, Escherichia coli NIHJ JC-2, in vitro, read-out: minimum inhibitory concentration (MIC)
[20] = P2381, Proteus mirabilis P-2381, in vitro, read-out: minimum inhibitory concentration (MIC)
[21] = Proteus morganii Kono, in vitro
[22] = Pseudomonas aeruginosa No. 12, in vitro, read-out: minimum inhibitory concentration (MIC)
[23] = Staphylococcus aureus 209P JC-1, in vitro
[24] = Staphylococcus aureus No. 50774, in vitro, read-out: minimum inhibitory concentration (MIC)

SMILES	MIC [1]	MIC [2, 18]	MIC [3, 19]	MIC (Escherichia coli P-5101 [4])	MIC [5]	MIC (Proteus mirabilis P-2381; [20])	MIC (Proteus morganii Kono; [21])	MIC [6, 22]	MIC [8]	MIC [10]	MIC [11, 23]	MIC [12, 24]	MIC [13]	MIC (Shigella flexneri 2a)	MIC [14]	ED50 [15]	ED50 (Escherichia coli P-5101 [16])	ED50 ([17]; po)	ED50 ([17]; sc)	solubility (Solubility in water)	further results
Cn1nnnc1SCC1=C(C(=O)O)N2C(=O)C(NC(=O)C(NC(=O)c3c[nH]c4nc(N5CCNCC5)ncc4c3=O)c3ccc(O)cc3)C2SC1 (stereo not drawn)	–	–	–	–	–	–	–	–	–	–	–	–	–	–	–	–	–	–	–	–	Solubility in water (in words) (Solubility in water; water / deionized water / aqueous medium): soluble in deionized water in the same degree as compound A
Cc1nnc(SCC2=C(C(=O)O)N3C(=O)[C@@H](NC(=O)Cn4cnnn4)[C@H]3SC2)s1 [B, Cefazolin]	0.39 µg/mL (≈ 0.858 µM)	> 200 µg/mL	1.56 µg/mL (≈ 3.43 µM)	1.56 µg/mL (≈ 3.43 µM)	3.13 µg/mL (≈ 6.89 µM)	6.25 µg/mL (≈ 13.8 µM)	> 200 µg/mL	> 200 µg/mL	1.56 µg/mL (≈ 3.43 µM)	> 200 µg/mL	0.2 µg/mL (≈ 0.44 µM)	0.2 µg/mL (≈ 0.44 µM)	0.1 µg/mL (≈ 0.22 µM)	3.13 µg/mL (≈ 6.89 µM)	> 200 µg/mL	0.2 mg/kg	5.3 mg/kg	> 100 mg/kg	> 800 mg/kg	400 mg/mL (≈ 880000 µM)	MIC ([7]; Pseudomonas aeruginosa Tsuchijima, in vitro): > 200 µg/mL; MIC ([9]; Salmonella typhimurium S-9, in vitro): 1.56 µg/mL (≈ 3.43 µM); minimum inhibitory concentration (MIC) (Escherichia coli P-140a): > 200 µg/mL
O=CN1CCN(c2ncc3c(=O)c(C(=O)N[C@@H](C(=O)N[C@@H]4C(=O)N5C(C(=O)O)=C(CSc6nnnn6CC(=O)O)CS[C@H]45)c4ccc(O)cc4)c[nH]c3n2)CC1 [Compound 1, Disodium 7-{D-α-[5,8-dihydro-2-(4-formyl-1-piperazinyl)-5-oxopyrido[2,3-d]pyrimidine-6-carboxamido]-α-p-hydroxyphenylacetamido}-3-(1-carboxylatomethyl-1,2,3,4-tetrazol-5-yl)thiomethyl-3-cephem-4-carboxylate]	3.13 µg/mL	–	–	0.78 µg/mL	1.56 µg/mL	0.78 µg/mL	–	–	0.78 µg/mL	3.13 µg/mL	–	–	0.2 µg/mL	1.56 µg/mL	6.25 µg/mL	13.1 mg/kg	1.5 mg/kg	> 100 mg/kg	4.8 mg/kg	~400 mg/mL	MIC ([2]; Enterobacter cloacae, P2540, read-out: minimum inhibitory concentration (MIC)): 1.56 µg/mL; MIC ([3]; Escherichia coli, NIHJJC2, read-out: minimum inhibitory concentration (MIC)): 1.56 µg/mL; MIC (Proteus morganii Kono): 1.56 µg/mL; MIC ([6]; Pseudomonas aeruginosa, NO.12, read-out: minimum inhibitory concentration (MIC)): 6.25 µg/mL; MIC ([7]; Pseudomonas aeruginosa): 1.56 µg/mL; MIC ([9]; TYPHIMURIUM): 1.56 µg/mL; MIC ([11]; Staphylococcus aureus, 209P): 6.25 µg/mL; MIC ([12]; Staphylococcus aureus, NO.50774, read-out: minimum inhibitory concentration (MIC)): 6.25 µg/mL; MIC (Escherichia coli P-140a): 1.56 µg/mL; LD50 at 168 h (Acute toxicity in mice): > 2000 mg/kg
O=CN1CCN(c2ncc3c(=O)c(C(=O)N[C@@H](C(=O)N[C@@H]4C(=O)N5C(C(=O)O)=C(CSc6nnc(CC(=O)O)s6)CS[C@H]45)c4ccc(O)cc4)c[nH]c3n2)CC1 [Compound 2, Disodium 7-{D-α-[5,8-dihydro-2-(4-formyl-1-piperazinyl)-5-oxopyrido[2,3-d]pyrimidine-6-carboxamido]-α-p-hydroxyphenylacetamido}-3-(5-carboxylatomethyl-1,3,4-thiadiazol-2-yl)thiomethyl-3-cephem-4-carboxylate]	3.13 µg/mL	3.13 µg/mL	0.78 µg/mL	0.78 µg/mL	1.56 µg/mL	–	3.13 µg/mL	6.25 µg/mL	0.78 µg/mL	6.25 µg/mL	6.25 µg/mL	6.25 µg/mL	0.1 µg/mL	1.56 µg/mL	12.5 µg/mL	11.5 mg/kg	2.5 mg/kg	> 100 mg/kg	9.6 mg/kg	~150 mg/mL	MIC (Proteus mirabilis P-2381; Proteus mirabilis, P2381, read-out: minimum inhibitory concentration (MIC)): 1.56 µg/mL; MIC ([7]; Pseudomonas aeruginosa): 1.56 µg/mL; MIC ([9]; TYPHIMURIUM): 1.56 µg/mL; MIC (Escherichia coli P-140a): 1.56 µg/mL; LD50 at 168 h (Acute toxicity in mice; male mice (ddY), after 7 days): > 2000 mg/kg
